{"source": "paper PMC4674695", "about": "“Antagonism of Nav channels and α1-adrenergic receptors contributes to vascular smooth muscle effects of ranolazine” (Scientific Reports, 2015)", "system": "T1, tetrodotoxin-sensitive voltage-gated Nav channels", "T1 construct": "gene Scn1a", "experiment": "whole-cell patch clamp, voltage ramp", "assay_type": "cell-based, Rattus norvegicus", "conditions": "INa at maximal amplitude; veratridine 100 μM present, 2 mM NiCl2, 22–24 °C, pH 7.4; block voltage-dependent", "data": [{"compound": "COc1ccccc1OCC(O)CN1CCN(CC(=O)Nc2c(C)cccc2C)CC1", "note": "(stereo not shown) [ranolazine]", "values": [{"measurement": "% inhibition at 20 μM", "result": 40, "unit": "%"}]}]}
